ChEMBL document CHEMBL5257084, “Novel inhibitors of Rickettsia prowazekii methionine aminopeptidase from the Malaria Box” (Bioorg Med Chem Lett, 2023)

Key:
[1] = Inhibition of Rickettsia prowazekii Methionine aminopeptidase 1; assay type: single protein
[2] = tested on: Rickettsia prowazekii; assay: Inhibition of Rickettsia prowazekii Methionine aminopeptidase 1 at 10 uM relative to control

| Compound | IC50 [1] [µM] | inhibition [2] [%] |
| --- | --- | --- |
| COc1cccc(NC(=O)[C@H](C(C)C)n2c(=O)[nH]c3ccccc3c2=O)c1 | 22 | > 50 |
| O=C(NCC(c1ccsc1)N1CCCCCC1)c1ccc(C(F)(F)F)cc1 (stereo not given) | 15 | > 50 |
| COc1ccc(C2=C(c3ccc(OC)cc3)C3(c4ccccc4)C(=O)C2(c2ccccc2)C2C(=O)N(c4ccc(C)cc4)C(=O)C23)cc1 (stereo not given) | 4 | > 50 |
| CC(C)OCc1cc(CN2CCN(c3cccc(Cl)c3)CC2)c(O)c2ncccc12 | 3.8 | > 50 |
| CSC1=N/C(=N\c2c(C)cccc2C)C2(CCC(C(C)(C)C)CC2)N1c1ccc(Cl)cc1 (stereo not given) | 9 | > 50 |
| COc1ccc(-c2c(C)nn3c(N)c(C#N)cnc23)cc1OC | 9 | > 50 |
| O=C(O)c1ccc(-c2ccccc2Cl)o1 | 2.4 |  |
| CCCc1c(CC)c(=N)c2ccccc2n1C | 1.6 | > 50 |
| CCn1c(CN2CCN(Cc3ccccc3)CC2)nc2cc(NC(=O)c3cccs3)ccc21 | 9 | > 50 |
| COc1ccc(/C=C2\SC(=N)N(c3ccccc3OC)C2=O)cc1 | 4.4 | > 50 |
| c1ccc(Cn2c(/N=N/c3c(Nc4ccccc4)ccc4ccccc34)nc3ccccc32)cc1 | 1.9 | > 50 |
| O=C(NC(c1ccccc1)c1ccc2cccnc2c1O)c1ccccc1 (stereo not given) | 12 | > 50 |
| Cc1ccc(N2C3c4ccccc4N(S(=O)(=O)c4ccc(C)cc4)C2c2ccccc2N3S(=O)(=O)c2ccc(C)cc2)cc1 | 0.8 | > 50 |
